#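 Following 48 hours of exposure in 96-well plates, responses at five concentrations were used to interpolate endpoints linearly. Here, GI50 denotes the concentration required for 50% inhibition of growth. At the TGI there is no net growth.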
# How the values were obtained:
# Test in all cases: NCI-60 cell line screen, 48 h
# [1] = tested on: M14 melanoma
# [2] = tested on: UACC-257 melanoma
# [3] = tested on: CCRF-CEM leukemia
# [4] = tested on: NCI-H226 lung
# [5] = tested on: A498 renal
# [6] = tested on: SK-MEL-28 melanoma
# [7] = tested on: K-562 leukemia
# [8] = tested on: MCF7 breast
# [9] = tested on: EKVX NSCLC
# [10] = tested on: SF-268 CNS
# [11] = tested on: SNB-75 CNS
# [12] = tested on: SNB-19 CNS
# [13] = tested on: MDA-MB-231 breast
# [14] = tested on: OVCAR-3 ovarian
# [15] = tested on: HS 578T breast
# [16] = tested on: KM12 colon
# [17] = tested on: HOP-62 NSCLC
# [18] = tested on: NCI-H23 lung
# [19] = tested on: LOX IMVI melanoma
# [20] = tested on: SF-295 CNS
# [21] = tested on: HOP-92 NSCLC
# [22] = tested on: IGROV1 ovarian
# [23] = tested on: NCI/ADR-RES ovarian
# [24] = tested on: SR leukemia
# [25] = tested on: MOLT-4 leukemia
# [26] = tested on: MDA-MB-435
# [27] = tested on: MALME-3M melanoma
# [28] = tested on: 786-0 renal
# [29] = tested on: NCI-H522 lung
# [30] = tested on: UACC-62 melanoma
# [31] = tested on: T-47D breast
# [32] = tested on: HCC-2998 colon
# [33] = tested on: RPMI-8226 leukemia
# [34] = tested on: HL-60(TB) leukemia
# [35] = tested on: HCT-15 colon
# [36] = tested on: CAKI-1 renal
# [37] = tested on: UO-31 renal
# [38] = tested on: NCI-H460 lung
# [39] = tested on: SW-620 colon
# [40] = tested on: TK-10 renal
# [41] = tested on: OVCAR-8 ovarian
# [42] = tested on: HCT-116 colon
# [43] = tested on: ACHN renal
# [44] = tested on: PC-3 prostate
# [45] = tested on: OVCAR-4 ovarian
# [46] = tested on: SF-539 CNS
# [47] = tested on: A549 NSCLC
# [48] = tested on: OVCAR-5 ovarian
# [49] = tested on: RXF 393 renal
# [50] = tested on: COLO 205 colon
# [51] = tested on: SN12C renal
# [52] = tested on: DU-145 prostate
# [53] = tested on: SK-OV-3 ovarian
# [54] = tested on: SK-MEL-5 melanoma
# [55] = tested on: U251 CNS
# [56] = tested on: HT29 colon
# [57] = tested on: SK-MEL-2 melanoma
smiles,measurement,setting,value
Cc1cc(C#Cc2ccccc2)ccc1-n1c(/C=C/c2ccc(O)cc2)nc2ccccc2c1=O,GI50,[1],3.56 µM
same,TGI,[1],15.1 µM
same,GI50,[2],4.18 µM
same,TGI,[2],56.3 µM
same,GI50,[3],3.26 µM
same,TGI,[3],> 100 µM
same,GI50,[4],3.99 µM
same,TGI,[4],> 100 µM
same,GI50,[5],1.56 µM
same,TGI,[5],7.71 µM
same,GI50,[6],4.54 µM
same,TGI,[6],> 100 µM
same,GI50,[7],2 µM
same,TGI,[7],> 100 µM
same,GI50,[8],2.72 µM
same,TGI,[8],11 µM
same,GI50,[9],2.43 µM
same,TGI,[9],> 100 µM
same,GI50,[10],4.56 µM
same,TGI,[10],> 100 µM
same,GI50,[11],3.66 µM
same,TGI,[11],38.4 µM
same,GI50,[12],6.91 µM
same,TGI,[12],> 100 µM
same,GI50,[13],3.89 µM
same,TGI,[13],29.5 µM
same,GI50,[14],3.6 µM
same,TGI,[14],25.7 µM
same,GI50,[15],2.48 µM
same,TGI,[15],49.5 µM
same,GI50,[16],3.24 µM
same,TGI,[16],12.6 µM
same,GI50,[17],13.1 µM
same,TGI,[17],> 100 µM
same,GI50,[18],3.62 µM
same,TGI,[18],> 100 µM
same,GI50,[19],2.78 µM
same,TGI,[19],10.8 µM
same,GI50,[20],2.85 µM
same,TGI,[20],13.6 µM
same,GI50,[21],2.5 µM
same,TGI,[21],7.26 µM
same,GI50,[22],20.6 µM
same,TGI,[22],> 100 µM
same,GI50,[23],3.09 µM
same,TGI,[23],42 µM
same,GI50,[24],2.45 µM
same,TGI,[24],29 µM
same,GI50,[25],2.36 µM
same,TGI,[25],8.33 µM
same,GI50,[26],2.82 µM
same,TGI,[26],22.8 µM
same,GI50,[27],2.12 µM
same,TGI,[27],7.31 µM
same,GI50,[28],3.65 µM
same,TGI,[28],28.7 µM
same,GI50,[29],2.26 µM
same,TGI,[29],27.3 µM
same,GI50,[30],3.48 µM
same,TGI,[30],21.7 µM
same,GI50,[31],2.02 µM
same,TGI,[31],8.13 µM
same,GI50,[32],2.35 µM
same,TGI,[32],7.35 µM
same,GI50,[33],2.33 µM
same,TGI,[33],> 100 µM
same,GI50,[34],1.66 µM
same,TGI,[34],4.69 µM
same,GI50,[35],2.5 µM
same,TGI,[35],19.2 µM
same,GI50,[36],3.3 µM
same,TGI,[36],36.5 µM
same,GI50,[37],2.06 µM
same,TGI,[37],7.65 µM
same,GI50,[38],2.22 µM
same,TGI,[38],6.18 µM
same,GI50,[39],4.08 µM
same,TGI,[39],> 100 µM
same,GI50,[40],2.62 µM
same,TGI,[40],32.8 µM
same,GI50,[41],3.98 µM
same,TGI,[41],> 100 µM
same,GI50,[42],2.66 µM
same,TGI,[42],11 µM
same,GI50,[43],2.46 µM
same,TGI,[43],8.52 µM
same,GI50,[44],3.24 µM
same,TGI,[44],> 100 µM
same,GI50,[45],3.17 µM
same,TGI,[45],22.7 µM
same,GI50,[46],5.65 µM
same,TGI,[46],> 100 µM
same,GI50,[47],3.14 µM
same,TGI,[47],> 100 µM
same,GI50,[48],4.59 µM
same,TGI,[48],94.7 µM
same,GI50,[49],3.51 µM
same,TGI,[49],> 100 µM
same,GI50,[50],1.99 µM
same,TGI,[50],4.75 µM
same,GI50,[51],3.77 µM
same,TGI,[51],38.3 µM
same,GI50,[52],4.87 µM
same,TGI,[52],> 100 µM
same,GI50,[53],9.91 µM
same,TGI,[53],> 100 µM
same,GI50,[54],1.77 µM
same,TGI,[54],3.83 µM
same,GI50,[55],4.33 µM
same,TGI,[55],> 100 µM
same,GI50,[56],3.33 µM
same,TGI,[56],16.6 µM
same,GI50,[57],1.93 µM
same,TGI,[57],5.76 µM

# From PubChem BioAssay (NCI)
